In patent US10052330B2, “Substituted pyrido[3,4-b]pyrazines as Syk inhibitors” (HUTCHISON MEDIPHARMA LIMITED, priority 2011, dated 2018):
Read-outs that look alike come from different tables or passages of the source.

How the values were obtained:
[1] = target: Syk kinase (Homo sapiens, UniProt P43405); experiment: Syk kinase enzymatic assay (Kit-Tyr 2 Peptide); assay type: biochemical
[2] = test system: RBL-2H3 cells; experiment: IgE-induced Beta-hexosaminidase secretion in RBL-2H3 cells; assay type: cell-based; details: Rattus norvegicus
[3] = 8 concentrations, 1 μM down to 0.0003 μM, upper bound of each range is 'less than', read-out: IC50: Enzymatic Activity (Syk kinase)
[4] = RBL-2H3, RBL-2H3 cells sensitized with SPE-7, stimulated with DNP-BSA, upper bound of each range is 'less than', read-out: IC50, IgE-induced Beta-hexosaminidase secretion

SMILES | IC50 [1, 3] [nM] | IC50 [2, 4] [nM] | IC50 [1] [nM] | IC50 ([2]; RBL-2H3, read-out: IC50, IgE-induced Beta-hexosaminidase secretion) [nM]
CC(=O)N1CCN(c2ccc(-c3cc4nccnc4c(NC[C@@H]4CNCCC4(F)F)n3)cc2)CC1 [Compound 384, (S)-1-(4-(4-(5-((4,4-difluoropiperidin-3-yl)methylamino)pyrido[4,3-b]pyrazin-7-yl)phenyl)piperazin-1-yl)ethanone] | 1 to 100 | 1 to 100 |  | 
CC(=O)N1CCN(c2ccc(-c3cc4nccnc4c(NC[C@H]4CNCCC4(F)F)n3)cc2)CC1 [Compound 385, (R)-1-(4-(4-(5-((4,4-difluoropiperidin-3-yl)methylamino)pyrido[4,3-b]pyrazin-7-yl)phenyl)piperazin-1-yl)ethanone] | 1 to 100 | 1 to 100 |  | 
C[C@H]1CN(c2ccc(-c3cc4nccnc4c(NC[C@@H]4CNCCO4)n3)cc2F)CCO1 [Compound 386, 7-(3-fluoro-4-((S)-2-methylmorpholino)phenyl)-N—((S)-morpholin-2-ylmethyl)pyrido[4,3-b]pyrazin-5-amine] | 1 to 100 | 100 to 1000 |  | 
C[C@@H]1CN(c2ccc(-c3cc4nccnc4c(NC[C@@H]4CNCCO4)n3)cc2F)CCO1 [Compound 387, 7-(3-fluoro-4-((R)-2-methylmorpholino)phenyl)-N—((S)-morpholin-2-ylmethyl)pyrido[4,3-b]pyrazin-5-amine] | 1 to 100 | 1 to 100 |  | 
CNC(=O)COc1ccc(-c2cc3nccnc3c(NC[C@@H]3CNCCC3(F)F)n2)cc1 [Compound 388, (S)-2-(4-(5-((4,4-difluoropiperidin-3-yl)methylamino)pyrido[4,3-b]pyrazin-7-yl)phenoxy)-N-methylacetamide] | 1 to 100 | 1 to 100 |  | 
CNC(=O)COc1ccc(-c2cc3nccnc3c(NC[C@H]3CNCCC3(F)F)n2)cc1 [Compound 389, (R)-2-(4-(5-((4,4-difluoropiperidin-3-yl)methylamino)pyrido[4,3-b]pyrazin-7-yl)phenoxy)-N-methylacetamide] | 1 to 100 | 1 to 100 |  | 
CS(=O)(=O)c1ccc(-c2cc3nccnc3c(NC[C@@H]3CNCCC3(F)F)n2)cc1 [Compound 390, (S)—N-((4,4-difluoropiperidin-3-yl)methyl)-7-(4-(methylsulfonyl)phenyl)pyrido[4,3-b]pyrazin-5-amine] | 1 to 100 | 1 to 100 |  | 
CCn1cc(-c2cc3nccnc3c(NC[C@@H]3CNCCC3(F)F)n2)cn1 [Compound 392, (S)—N-((4,4-difluoropiperidin-3-yl)methyl)-7-(1-ethyl-1H-pyrazol-4-yl)pyrido[4,3-b]pyrazin-5-amine] | 1 to 100 | 1 to 100 |  | 
CCn1cc(-c2cc3nccnc3c(NC[C@H]3CNCCC3(F)F)n2)cn1 [Compound 393, (R)—N-((4,4-difluoropiperidin-3-yl)methyl)-7-(1-ethyl-1H-pyrazol-4-yl)pyrido[4,3-b]pyrazin-5-amine] | 100 to 1000 | 1 to 100 |  | 
CN(c1ccc(-c2cc3nccnc3c(NC[C@@H]3CNCCC3(F)F)n2)cc1)S(C)(=O)=O [Compound 394, (S)—N-(4-(5-((4,4-difluoropiperidin-3-yl)methylamino)pyrido[4,3-b]pyrazin-7-yl)phenyl)-N-methylmethanesulfonamide] | 1 to 100 | 1 to 100 |  | 
CN(c1ccc(-c2cc3nccnc3c(NC[C@H]3CNCCC3(F)F)n2)cc1)S(C)(=O)=O [Compound 395, (R)—N-(4-(5-((4,4-difluoropiperidin-3-yl)methylamino)pyrido[4,3-b]pyrazin-7-yl)phenyl)-N-methylmethanesulfonamide] | 100 to 1000 | 1 to 100 |  | 
C[C@H]1CN(c2ccc(-c3cc4nccnc4c(NC[C@H]4CNCCC4(F)F)n3)cc2)CCO1 [Compound 397, (R)—N-((4,4-difluoropiperidin-3-yl)methyl)-7-(4-((S)-2-methylmorpholino)phenyl)pyrido[4,3-b]pyrazin-5-amine] | 1 to 100 | 1 to 100 |  | 
FC1(F)CCNC[C@H]1CNc1nc(-c2cnn(C3CCOCC3)c2)cc2nccnc12 [Compound 398, (S)—N-((4,4-difluoropiperidin-3-yl)methyl)-7-(1-(tetrahydro-2H-pyran-4-yl)-1H-pyrazol-4-yl)pyrido[4,3-b]pyrazin-5-amine] | 1 to 100 | 1 to 100 |  | 
FC1(F)CCNC[C@@H]1CNc1nc(-c2cnn(C3CCOCC3)c2)cc2nccnc12 [Compound 399, (R)—N-((4,4-difluoropiperidin-3-yl)methyl)-7-(1-(tetrahydro-2H-pyran-4-yl)-1H-pyrazol-4-yl)pyrido[4,3-b]pyrazin-5-amine] | 1 to 100 | 1 to 100 |  | 
O=S(=O)(C1CC1)N1CCN(c2ccc(-c3cc4nccnc4c(NC[C@@H]4CNCCO4)n3)cc2)CC1 [Compound 400, (S)-7-(4-(4-(cyclopropylsulfonyl)piperazin-1-yl)phenyl)-N-(morpholin-2-ylmethyl)pyrido[4,3-b]pyrazin-5-amine] | 1 to 100 | 1 to 100 |  | 
CC(C)S(=O)(=O)N1CCN(c2ccc(-c3cc4nccnc4c(NC[C@@H]4CNCCO4)n3)cc2)CC1 [Compound 401] | 1 to 100 | 100 to 1000 |  | 
O=C(CC(F)(F)F)N1CCN(c2ccc(-c3cc4nccnc4c(NC[C@@H]4CNCCO4)n3)cc2)CC1 [Compound 411] | 1 to 100 | 1 to 100 |  | 
O=C(C1CCCC1)N1CCN(c2ccc(-c3cc4nccnc4c(NC[C@@H]4CNCCO4)n3)cc2)CC1 [Compound 414] | 1 to 100 | 1 to 100 |  | 
O=C([C@@H]1CCCO1)N1CCN(c2ccc(-c3cc4nccnc4c(NC[C@@H]4CNCCO4)n3)cc2)CC1 [Compound 415] | 1 to 100 | 1 to 100 |  | 
O=C([C@H]1CCCO1)N1CCN(c2ccc(-c3cc4nccnc4c(NC[C@@H]4CNCCO4)n3)cc2)CC1 [Compound 416] | 1 to 100 | 1 to 100 |  | 
CC(=O)N1CCC(c2ccc(-c3cc4nccnc4c(NC[C@@H]4CNCCO4)n3)cc2)CC1 [Compound 418] | 1 to 100 | 1 to 100 |  | 
CC(=O)N(C)C1CCN(c2ccc(-c3cc4nccnc4c(NC[C@@H]4CNCCO4)n3)cc2)CC1 [Compound 420] | 1 to 100 | 100 to 1000 |  | 
O=C(c1ccoc1)N1CCN(c2ccc(-c3cc4nccnc4c(NCC4CNCCO4)n3)cc2)CC1 (stereo not drawn) [Compound 421] | 1 to 100 | 1 to 100 |  | 
O=C(CF)N1CCN(c2ccc(-c3cc4nccnc4c(NCC4CNCCO4)n3)cc2)CC1 (stereo not drawn) [Compound 424] |  |  | 1 to 100 | 1 to 100
O=C(c1ccco1)N1CCN(c2ccc(-c3cc4nccnc4c(NCC4CNCCO4)n3)cc2)CC1 (stereo not drawn) [Compound 425] | 1 to 100 | 1 to 100 |  | 
O=C(C(F)F)N1CCN(c2ccc(-c3cc4nccnc4c(NC[C@@H]4CNCCO4)n3)cc2F)CC1 [Compound 427] | 1 to 100 | 1 to 100 |  | 
O=C(CC(F)(F)F)N1CCN(c2ccc(-c3cc4nccnc4c(NC[C@@H]4CNCCO4)n3)cc2F)CC1 [Compound 428] | 1 to 100 | 1 to 100 |  | 
CCC(=O)N1CCN(c2ccc(-c3cc4nccnc4c(NC[C@@H]4CNCCO4)n3)cc2F)CC1 [Compound 429] | 1 to 100 | 1 to 100 |  | 
O=C(C1CC(F)(F)C1)N1CCN(c2ccc(-c3cc4nccnc4c(NC[C@@H]4CNCCO4)n3)cc2)CC1 [Compound 432] | 1 to 100 | 1 to 100 |  | 
N#CCCC(=O)N1CCN(c2ccc(-c3cc4nccnc4c(NC[C@@H]4CNCCO4)n3)cc2)CC1 [Compound 434] | 1 to 100 | 100 to 1000 |  | 

The next lines start with results.

IC50 [1, 3] [nM] | SMILES | IC50 [2, 4] [nM] | IC50 [1] [nM] | IC50 ([2]; RBL-2H3, read-out: IC50, IgE-induced Beta-hexosaminidase secretion) [nM]
1 to 100 | CC1(C(=O)N2CCN(c3ccc(-c4cc5nccnc5c(NC[C@@H]5CNCCO5)n4)cc3)CC2)CC1 [Compound 402] | 1 to 100 |  | 
1 to 100 | O=C(CC1CC1)N1CCN(c2ccc(-c3cc4nccnc4c(NC[C@@H]4CNCCO4)n3)cc2)CC1 [Compound 403] | 100 to 1000 |  | 
1 to 100 | CC1(C(=O)N2CCN(c3ccc(-c4cc5nccnc5c(NC[C@@H]5CNCCO5)n4)cc3)CC2)COC1 [Compound 404] | 100 to 1000 |  | 
1 to 100 | CC(C)C(=O)N1CCN(c2ccc(-c3cc4nccnc4c(NC[C@@H]4CNCCO4)n3)cc2)CC1 [Compound 405] | 1 to 100 |  | 
1 to 100 | C[C@@H](O)C(=O)N1CCN(c2ccc(-c3cc4nccnc4c(NC[C@@H]4CNCCO4)n3)cc2)CC1 [Compound 406] | 100 to 1000 |  | 
1 to 100 | O=C(C(F)F)N1CCN(c2ccc(-c3cc4nccnc4c(NC[C@@H]4CNCCO4)n3)cc2)CC1 [Compound 407] | 1 to 100 |  | 
1 to 100 | C[C@H](O)C(=O)N1CCN(c2ccc(-c3cc4nccnc4c(NC[C@@H]4CNCCO4)n3)cc2)CC1 [Compound 408] | 100 to 1000 |  | 
1 to 100 | N#CCC(=O)N1CCN(c2ccc(-c3cc4nccnc4c(NC[C@@H]4CNCCO4)n3)cc2)CC1 [Compound 409] | 100 to 1000 |  | 
1 to 100 | O=C(CCO)N1CCN(c2ccc(-c3cc4nccnc4c(NC[C@@H]4CNCCO4)n3)cc2)CC1 [Compound 410] | 100 to 1000 |  | 
1 to 100 | CC(C)(O)C(=O)N1CCN(c2ccc(-c3cc4nccnc4c(NC[C@@H]4CNCCO4)n3)cc2)CC1 [Compound 412] | 100 to 1000 |  | 
1 to 100 | O=C(C1CCC1)N1CCN(c2ccc(-c3cc4nccnc4c(NC[C@@H]4CNCCO4)n3)cc2)CC1 [Compound 413] | 1 to 100 |  | 
1 to 100 | O=C([C@@H]1CCOC1)N1CCN(c2ccc(-c3cc4nccnc4c(NC[C@@H]4CNCCO4)n3)cc2)CC1 [Compound 417] | 100 to 1000 |  | 
1 to 100 | N#CC1(C(=O)N2CCN(c3ccc(-c4cc5nccnc5c(NCC5CNCCO5)n4)cc3)CC2)CC1 (stereo not drawn) [Compound 423] | 1 to 100 |  | 
1 to 100 | CCCC(=O)N1CCN(c2ccc(-c3cc4nccnc4c(NC[C@@H]4CNCCO4)n3)cc2)CC1 [Compound 426] | 1 to 100 |  | 
1 to 100 | CC(F)C(=O)N1CCN(c2ccc(-c3cc4nccnc4c(NC[C@@H]4CNCCO4)n3)cc2)CC1 (stereo partly drawn) [Compound 433] | 1 to 100 |  | 
